US20210164051A1, “METHODS OF DETECTION AND ANALYSIS OF NUCLEIC ACID IN NEURAL-DERIVED EXOSOMES” (priority 2019, published 2021)
Like-named read-outs stand apart in the source and are kept apart here.

How the values were obtained:
tau AT8+ NFT = conditions: averaged across 7 cortical regions
[1] = system: TDP-43+ anterior horn motor neurons
myelinated axon fibers = conditions: 7 of 16 vervets exposed to BMAA; NS, p=0.0956
IbA1+ microglia = conditions: for IbA1+ Density / IbA1+ microglia Size: median ± SEM, n = 8
[2] = system: anterior horn motor neurons
[3] = anterior horn, 210 mg/kg/day, 140 days, median ± SEM
[4] = vervet spinal cord, 210 mg/kg/day oral, 140 days, median ± SEM
[5] = lateral corticospinal tracts, Cervical Segment
[6] = lateral corticospinal tracts, Lumbar Segment
[7] = lateral corticospinal tract, stimulated by BMAA dosing

CNC[C@H](N)C(=O)O [BMAA, β-N-methylamino-L-alanine]
increase of median cortical tau AT8+ NFT density (tau AT8+ NFT; p<0.0001, n=8): 3.1 fold | vervets with cytoplasmic mislocalization of FUS protein ([1]; 2 of the 16 BMAA-dosed vervets): 12.5% | vervets with neurons positive for TDP-43 cytoplasmic inclusion bodies ([1]; 12 of 16 vervets fed BMAA): 75% | number of TDP-43+ motor neurons per region of interest, All Spinal Cord Segments [1, 3]: 4.5 ± 1.7 | number of TDP-43+ motor neurons per region of interest, Cervical Segment [1, 3]: 3.0 ± 1.9 | number of TDP-43+ motor neurons per region of interest, Lumbar Segment [1, 3]: 3.0 ± 3.1 | mean density and distribution of TDP-43+ inclusions vs controls ([1]; toxin-dosed vervets, p=0.024): 5 fold | median total BMAA concentration in spinal cord tissues (BMAA and BMAA L-serine dosing cohorts pooled, ±13.7 SE): 61.4 µg/g | Free BMAA per gram of spinal cord tissues [4]: 8.9 ± 3.9 ^NS μg/g | Hydrolyzed Protein Pellet BMAA per gram of spinal cord tissues [4]: 0.5 ± 0.3 ^NS μg/g | Hydrolyzed Supernatant BMAA per gram of spinal cord tissues [4]: 34.0 ± 20.5 ^NS μg/g | vervets with loss of myelinated axon fiber staining in the lateral corticospinal tracts (myelinated axon fibers): 44% | density and total area covered by IbA1+ microglia, cervical compared to lumbar segments (IbA1+ microglia; BMAA-dosed primates, p=0.0039): 1.5 fold | IbA1+ Density (IbA1+ microglia; [5]): 1831.8 ± 206.9 Ct | IbA1+ microglia Size (IbA1+ microglia; [5]): 15.4 ± 1.7^NS Px | IbA1+ Density (IbA1+ microglia; [6]): 1213.7 ± 151.5^NS Ct | IbA1+ microglia Size (IbA1+ microglia; [6]): 13.9 ± 1.9^NS Px | increase of total area covered by IbA1+ microglia vs rice flour controls (IbA1+ microglia; lateral corticospinal tracts, cervical spinal cord, p=0.011, n=8): 1.6 fold | increase of median density of IbA1+ microglia vs rice flour controls (IbA1+ microglia; lateral corticospinal tracts, cervical spinal cord, p=0.048, n=8): 1.7 fold | effect on the size of Iba1+ microglia (IbA1+ microglia; lateral corticospinal tracts, NS, p=0.260, n=8): did not have a significant effect | increase of median numbers of GFAP+ astroglia (GFAP+ astroglia; anterior horn of the lumbar spinal cord, p=0.008, n=8): 44% | increase of density of GFAP+ activated astroglia (GFAP+ astroglia; anterior horns of the lumbar spinal cord, p=0.008): 1.4 fold | decrease of anterior horn neuronal numbers ([2]; BMAA 210 mg/kg/day, 140 days, p=0.0016): 23% | greater frequency of eosinophilic neurons vs rice flour controls ([2]; cervical spinal cord anterior horns, BMAA 210 mg/kg/day, 140 days, p=0.024): 4.3 fold | reduction in size of eosinophilic lower motor neurons ([2]; cervical spinal cord anterior horns, p<0.0001): 40%

N[C@@H](CO)C(=O)O [L-serine]
attenuation of BMAA-induced tau NFT density by coadministration of L-serine (tau AT8+ NFT): 40% | effect of L-serine coadministration on median concentrations of BMAA in spinal cord (any fraction of the vervet spinal cord): did not significantly reduce | attenuation of CD68+ microglial expression by coadministration of L-serine (CD68+ microglia; [7]): 24% | effect of L-serine coadministration on CD68+ microglial nodule numbers, size and expression intensity (CD68+ microglia; p=0.01, n=8): reduced | attenuation of mean Iba1+ microglia distribution by coadministration of L-serine (IbA1+ microglia; [7]): 32% | reduction of total number of GFAP+ astroglia by coadministration of L-serine (GFAP+ astroglia; anterior horn of the lumbar spinal cord, BMAA + L-serine both 210 mg/kg/day, p=0.008): 21% | reduction of total area of GFAP+ astroglia by coadministration of L-serine (GFAP+ astroglia; anterior horn of the lumbar spinal cord, automated image analysis, p=0.007): 20%
